Experimental data taken from paper PMC11350846, “Synthesis of Second-Generation Analogs of Temporin-SHa Peptide Having Broad-Spectrum Antibacterial and Anticancer Effects” (Antibiotics, 2024).
Where a SMILES comes first, the peptide text is derived from it. [ ]: non-standard residue; d: D form.

Key:
A. baumannii (DSM 30007) = details: A. baumannii (DSM 30007), 18-24 h
Procedure: (§1) The peptides were assessed for their antibacterial activity by determining the minimum inhibitory concentration (MIC) using the two-fold serial dilution method following the National Committee of Clinical Laboratory Standards, as previously described. Gram-negative (Acinetobacter baumannii (DSM 30007), Escherichia coli (ATCC 8739), Enterobacter cloacae (DSM 30054), Helicobacter pylori (ATCC 43504), Klebsiella pneumoniae (DSM 26371), Pseudomonas aeruginosa (ATCC 9027)) and Gram-positive bacteria (Bacillus subtilis (ATCC 6633), Enterococcus faecalis (DSM 2570), Enterococcus faecium (DSM 20477), Staphylococcus aureus (ATCC 6538)) were used for the antibacterial activity assays. In brief, 3 mL of Mueller–Hinton (MH) broth was inoculated with single clusters of the various bacterial strains and incubated overnight at 37 °C with agitation at 200 rpm. The next day, the bacterial solution was diluted with sterile MH by 1/100 and further incubated at 37 °C and 200 rpm until the bacteria reached the log phase growth (OD600nm around 0.6). The bacterial suspension was then adjusted to a density of approximately 10^5 bacteria/mL, and 100 μL was added per well of 96-well microplates (Greiner BioOne, Les Ulis, France), followed by exposure to increasing concentrations of peptides (from 0 to 100 µM, 1:2 dilution). Plates were then incubated at 37 °C for 18-24 h under either aerobic (for A. baumannii, E. cloacae, E. coli, P. aeruginosa, B. subtilis, and S. aureus) or micro-aerobic conditions generated using GasPak units (for E. faecalis, E. faecium and, H. pylori). […] The optical density (OD) at 600nm was measured using a microplate reader (Biotek, Synergy Mx, Les Ulis, France) after the final incubation. All experiments were performed in triplicate (n = 3).

B. subtilis (ATCC 6633) = details: 18-24 h
Procedure: as §1

E. cloacae (DSM 30054) = details: E. cloacae (DSM 30054), 18-24 h
Procedure: as §1

E. coli (ATCC 8739) = details: E. coli (ATCC 8739), 18-24 h
Procedure: as §1

E. faecalis (DSM 2570) = details: E. faecalis (DSM 2570), micro-aerobic, 18-24 h
Procedure: as §1

E. faecium (DSM 20477) = details: E. faecium (DSM 20477), micro-aerobic, 18-24 h
Procedure: as §1

H. pylori (ATCC 43504) = details: micro-aerobic, 18-24 h
Procedure: as §1

K. pneumonia (DSM 26371) = details: K. pneumonia (DSM 26371), 18-24 h
Procedure: as §1

[1] = system: P. aeruginosa (ATCC 9027); details: P. aeruginosa (ATCC 9027), 18-24 h
Procedure: as §1

S. aureus (ATCC 6538) = details: 18-24 h
Procedure: as §1

Breast Cancer (MCF-7) = assay type: cell-based, human; details: MCF-7, 48 h; read-out: 50% inhibitory concentrations (IC50), cell proliferation
Procedure: (§2) The antiproliferative activity of the peptides was evaluated, as previously described using human cancer cell lines (A549 (lung), A2780 (ovary), HepG-2 (liver), MCF-7 (breast), MiaPaCa-2 (pancreas), MNT-1 (skin), and PC-3 (prostate)) and normal human lung fibroblasts (IMR-90) or epithelial cells (BEAS-2B). The cells were cultured in DMEM supplemented with 10% FBS, 1% L-glutamine, and 1% antibiotics at 37 °C in a 5% CO2 incubator. For the antiproliferative assay, cells were seeded in 96-well plates at approximately 3000 cells/well. Twenty-four hours later, cells were treated with increasing concentrations of peptides (1:2 serial dilution from 100 µM to 0 µM) for 48 h. After treatment, the number of viable cells was determined using a resazurin-based assay, and the fluorescence intensity was measured with a microplate reader (Ex 530 nm/Em 590 nm). The IC50 values of the peptides (i.e., the concentrations causing 50% inhibition of cell proliferation) were determined using GraphPad® Prism 7 software. The experiments were performed in triplicate (n = 3). The cytotoxicity of the peptides was also evaluated using confluent/no-dividing cells, as previously described. Briefly, human cells were seeded onto 96-well plates at 20,000 cells/well. When they reached 80–90% confluence (after 24–48 h), cells were treated with escalating concentrations of peptides. After 48h incubation, cell viability was measured using a resazurin assay and CC50 (i.e., the concentrations causing 50% inhibition of cell viability) and determined using GraphPad® Prism 7 software. The experiments were performed in triplicate (n = 3).

Liver Cancer (HepG-2) = assay type: cell-based, human; details: HepG-2, 48 h; read-out: 50% inhibitory concentrations (IC50), cell proliferation
Procedure: as §2

Lung Cancer (A549) = assay type: cell-based, human; details: A549, 48 h; read-out: 50% inhibitory concentrations (IC50), cell proliferation
Procedure: as §2

[2] = system: Normal Lung Epithelium (BEAS-2B); assay type: cell-based, human; details: BEAS-2B normal cells, 48 h; read-out: 50% inhibitory concentrations (IC50), cell proliferation
Procedure: as §2

[3] = system: Normal Lung Fibroblast (IMR-90); assay type: cell-based, human; details: IMR-90 normal cells, 48 h; read-out: 50% inhibitory concentrations (IC50), cell proliferation
Procedure: as §2

Ovarian Cancer (A2780) = assay type: cell-based, human; details: A2780, 48 h; read-out: 50% inhibitory concentrations (IC50), cell proliferation
Procedure: as §2

[4] = system: Pancreatic Cancer (MiaPaCa-2); assay type: cell-based, human; details: MiaPaCa-2, 48 h; read-out: 50% inhibitory concentrations (IC50), cell proliferation
Procedure: as §2

Prostate Cancer (PC-3) = assay type: cell-based, human; details: PC-3, 48 h; read-out: 50% inhibitory concentrations (IC50), cell proliferation
Procedure: as §2

Skin Cancer (MNT-1) = assay type: cell-based, human; details: MNT-1, 48 h; read-out: 50% inhibitory concentrations (IC50), cell proliferation
Procedure: as §2

Structure (SMILES)	minimum inhibitory concentration (MIC) (A. baumannii (DSM 30007)) [µM]	minimum inhibitory concentration (MIC) (B. subtilis (ATCC 6633)) [µM]	minimum inhibitory concentration (MIC) (E. cloacae (DSM 30054)) [µM]	minimum inhibitory concentration (MIC) (E. coli (ATCC 8739)) [µM]	minimum inhibitory concentration (MIC) (E. faecalis (DSM 2570)) [µM]	minimum inhibitory concentration (MIC) (E. faecium (DSM 20477)) [µM]	minimum inhibitory concentration (MIC) (H. pylori (ATCC 43504)) [µM]	minimum inhibitory concentration (MIC) (K. pneumonia (DSM 26371)) [µM]	minimum inhibitory concentration (MIC) [1] [µM]	minimum inhibitory concentration (MIC) (S. aureus (ATCC 6538)) [µM]	IC50 (Breast Cancer (MCF-7)) [µM]	IC50 (Liver Cancer (HepG-2)) [µM]	IC50 (Lung Cancer (A549)) [µM]	IC50 [2] [µM]	IC50 [3] [µM]	IC50 (Ovarian Cancer (A2780)) [µM]	IC50 [4] [µM]	IC50 (Prostate Cancer (PC-3)) [µM]	IC50 (Skin Cancer (MNT-1)) [µM]
CC[C@H](C)[C@H](NC(=O)CNC(=O)[C@H](CO)NC(=O)[C@H](CC(C)C)NC(=O)[C@@H](N)Cc1ccccc1)C(=O)N[C@H](C(=O)NCC(=O)N[C@@H](CCSC)C(=O)N[C@@H](CC(C)C)C(=O)N[C@H](C)C(=O)N[C@@H](CCCCN)C(=O)N[C@@H](CC(C)C)C(=O)N[C@@H](Cc1ccccc1)C(N)=O)C(C)C [[G10a]-SHa (2), H-Phe^1-Leu^2-Ser^3-Gly^4-IIe^5-Val^6-Gly^7-Met^8-Leu^9-D-Ala^10-Lys^11-Leu^12-Phe^13-NH2] (H-FLSGIVGML[dA]KLF-NH2)	12.5	3.12	>100	100	25	>100	3.12	100	>100	3.12	18.3 ± 8	37.2 ± 5	12.1 ± 0.4	22.6 ± 0.7	33 ± 3.1	13.4 ± 0.7	23.1 ± 4.3	13.1 ± 2.4	14 ± 0.8
CC[C@H](C)[C@H](NC(=O)CNC(=O)[C@H](CO)NC(=O)[C@H](CC(C)C)NC(=O)[C@@H](N)Cc1ccccc1)C(=O)N[C@H](C(=O)NCC(=O)N[C@@H](CCSC)C(=O)N[C@@H](CC(C)C)C(=O)NCC(=O)N[C@@H](CCCCN)C(=O)N[C@@H](CC(C)C)C(=O)N[C@@H](Cc1ccccc1)C(N)=O)C(C)C [Temporin-SHa (1), H-Phe^1-Leu^2-Ser^3-Gly^4-IIe^5-Val^6-Gly^7-Met^8-Leu^9-Gly^10-Lys^11-Leu^12-Phe^13-NH2, reference compound] (H-FLSGIVGMLGKLF-NH2)	6.25	1.56	50	50	12.5	6.25	3.12	50	50	3.12	26.9 ± 8.2	> 100	> 100	> 100	> 100	> 100	> 100	> 100	> 100
